According to US20040186046A1, “Treatment of type 1 diabetes with PDE5 inhibitors” (Pfizer Inc, priority 2003, published 2004):

How the values were obtained:
[1] = tested on: control and STZ-treated rats; assay: Plasma glucose in control and STZ-treated rats (model of Type 1 diabetes) on chronic sildenafil; type: in vivo, rat; conditions: for minimum glucose levels (Table 3), Change from vehicle / minimum glucose levels (Table 3), Sildenafil group / minimum plasma glucose (Table 2), Change from vehicle / minimum plasma glucose (Table 2), Sildenafil group: sildenafil 60 mg/kg/day sc; for minimum plasma glucose (Table 2), Change from vehicle / minimum plasma glucose (Table 2), Sildenafil group: average, week 2 to week 6; for statistical significance (p) of effect of sildenafil on minimum glucose levels / statistical significance (p) of effect of Sildenafil on average glucose: vs vehicle
Experimental: STZ is a nitrosamine which is toxic to the pancreatic β-cells and STZ-treated rats have been used as an experimental model for Type 1 diabetes (see e.g. Ari et al, Clin Sci (Colch) 1999:96:365).
(§1) To induce Type 1 diabetes, rats of 200-250 g were injected intra-peritoneally with streptozotocin (60 mg/kg) in citrate phosphate buffer, pH4.5 or the equivalent volume of vehicle. The development of non-keturonic hyperglycaemic diabetes was induced within 48 h and was confirmed by determining blood glucose levels in blood obtained from the tail vein of the rats at 48 h after STZ administration and monitored […] thereafter.
The Sildenafil-treated rats were divided in two group—normal and STZ-treated. In addition, there were two non-sildenafil groups—again normal and STZ treated. Throughout this period blood samples were taken from the tail vein on a weekly basis. These samples were taken prior to dosing so that trough concentrations could be estimated (ie at 6-8 h post dose). A further sample was taken at week 8 ([…] post dosing). Plasma from these blood samples, from all rats treated with sildenafil, and some controls, were assayed for sildenafil (and its n-desmethyl metabolite).
The plasma from these samples was stored at −20° C. and analysed for levels of glucose using the Roche/Hitachi 912 Clinical Chemistry Analyzer (Roche Diagnostics Corp., Indianapolis, Ind.) with kits supplied by Roche. All assays were conducted according to instructions provided by the manufacturers.

[2] = Sildenafil mean plasma concentration (free drug) in normal and STZ-treated rats on chronic sc dosing; type: in vivo, rat; conditions: chronic sildenafil 3 × 20 mg/kg sc/day
Experimental: as §1
Throughout this period blood samples were taken from the tail vein on a weekly basis. These samples were taken prior to dosing so that trough concentrations could be estimated (ie at 6-8 h post dose). A further sample was taken at week 8 ([…] post dosing).

U397 cells = conditions: statement quoted from U.S. Pat. No. 6,479,493, column 38; cited from earlier work

CCCc1nn(C)c2c(=O)[nH]c(-c3cc(S(=O)(=O)N4CCN(C)CC4)ccc3OCC)nc12 [Sildenafil, 5-[2-ethoxy-5-(4-methyl-1-piperazinylsulphonyl)phenyl]-1-methyl-3-n-propyl-1,6-dihydro-7H-pyrazolo[4,3-d]pyrimidin-7-one]
minimum glucose levels (Table 3), Change from vehicle ([1]; Control rats): -13 mg/dL | minimum glucose levels (Table 3), Sildenafil group ([1]; Control rats): 176 mg/dL | minimum plasma glucose (Table 2), Change from vehicle ([1]; Control rats): -25 mg/dL | minimum plasma glucose (Table 2), Sildenafil group ([1]; Control rats): 190 mg/dL | statistical significance (p) of effect of sildenafil on minimum glucose levels ([1]; STZ-treated animals, statistically significant effect): < 0.01 | minimum glucose levels (Table 3), Change from vehicle ([1]; STZ-treated rats): -269 mg/dL | minimum glucose levels (Table 3), Sildenafil group ([1]; STZ-treated rats): 462 mg/dL | minimum plasma glucose (Table 2), Change from vehicle ([1]; STZ-treated rats): -220 mg/dL | minimum plasma glucose (Table 2), Sildenafil group ([1]; STZ-treated rats): 583 mg/dL | statistical significance (p) of effect of Sildenafil on average glucose ([1]; STZ-treated rats): < 0.05 | effect on average plasma glucose (in words) ([1]; control and STZ-treated rats, decrease greater in STZ-treated animals): lowered average glucose in both types of rat | statistical significance (p) of effect of Sildenafil on average glucose ([1]; control rats): < 0.01 | statistical significance (p) of effect of sildenafil on minimum glucose levels ([1]; control rats, no statistically significant effect): > 0.10 | Sildenafil Mean plasma concentration (free drug) ([2]; Normal rats, 2 weeks (6-8 h post dose), n = 12): 36 nM | Sildenafil Mean plasma concentration (free drug) ([2]; Normal rats, 4 weeks (6-8 h post dose), n = 12): 45 nM | Sildenafil Mean plasma concentration (free drug) ([2]; Normal rats, 6 weeks (6-8 h post dose), n = 12): 45 nM | Sildenafil Mean plasma concentration (free drug) ([2]; Normal rats, 8 weeks (32-35 h post dose), n = 12): 28 nM | Sildenafil Mean plasma concentration (free drug) ([2]; STZ rats, 2 weeks (6-8 h post dose), N = 6-10): 79 nM | Sildenafil Mean plasma concentration (free drug) ([2]; STZ rats, 4 weeks (6-8 h post dose), N = 6-10): 41 nM | Sildenafil Mean plasma concentration (free drug) ([2]; STZ rats, 6 weeks (6-8 h post dose), N = 6-10): 57 nM | Sildenafil Mean plasma concentration (free drug) ([2]; STZ rats, 8 weeks (32-35 h post dose), N = 6-10): 11 nM | induction of apoptosis (U397 cells): does not induce apoptosis
